Measurements from the CheMixHub viscosity set.
“And” between values parts separate entries of the source, which are not always exact repeats. Equal entries are not always repeated.

Assay: xn = mol fraction of the nth substance listed

CCCCCCCCN(CCCCCCCC)CCCCCCCC + Cc1ccccc1
298.15 K, 101.33 kPa
Settings	viscosity [mPa·s]
x1 = 0.015	0.595
x1 = 0.033	0.646
x1 = 0.075	0.775
x1 = 0.231	1.405

CCCCOCCO + Cc1ccccc1
viscosity [mPa·s], 101 kPa
Settings	298.15 K	308.15 K
x1 = 0.055	0.593	0.531
x1 = 0.1509	0.678	0.597
x1 = 0.2513	0.784	0.679
x1 = 0.3489	0.909	0.775
x1 = 0.4511	1.066	0.896
x1 = 0.5015	1.156	0.965
x1 = 0.5525	1.257	1.042
x1 = 0.6512	1.483	1.215
x1 = 0.7494	1.759	1.425
x1 = 0.8498	2.105	1.689
x1 = 0.9541	2.551	2.03

CCOC(=O)CCl + Cc1ccccc1
viscosity [mPa·s], 101.3 kPa
Settings	x1 = 0.1004	x1 = 0.207	x1 = 0.299	x1 = 0.4013	x1 = 0.5048	x1 = 0.6083	x1 = 0.6963	x1 = 0.8022	x1 = 0.9006
298.15 K	0.594	0.631	0.671	0.714	0.768	0.823	0.878	0.945	1.02
303.15 K	0.561	0.594	0.63	0.669	0.719	0.77	0.818	0.881	0.947
308.15 K	0.528	0.559	0.59	0.626	0.671	0.718	0.758	0.817	0.873

O=C(OCc1ccccc1)c1ccccc1 + Cc1ccccc1
298.15 K, 101 kPa
Settings	viscosity [mPa·s]
x1 = 0.2369	1.183
x1 = 0.4262	2.015
x1 = 0.6505	3.614
x1 = 0.789	5.08
x1 = 0.9002	6.66

c1ccc2c(c1)CCCC2 + Cc1ccccc1
101.3 kPa
Settings	viscosity
298 K, x2 = 0.2	1.55 mPa·s
298.1 K, x2 = 0.4	1.133 mPa·s
298.2 K, x2 = 0.6	0.9208 mPa·s
298.2 K, x2 = 0.8	0.7036 mPa·s
303.2 K, x2 = 0.5	0.9625 mPa·s
308.2 K, x2 = 0.4	0.9772 mPa·s
308.2 K, x2 = 0.6	0.8034 mPa·s
308.2 K, x2 = 0.8	0.6177 mPa·s and 0.6155 mPa·s
313.1 K, x2 = 0.2	1.209 mPa·s
313.1 K, x2 = 0.5	0.8373 mPa·s
318.1 K, x2 = 0.4	0.8532 mPa·s
318.2 K, x2 = 0.6	0.7034 mPa·s
318.2 K, x2 = 0.8	0.553 mPa·s
323.1 K, x2 = 0.5	0.7376 mPa·s

CCCCOCCO + Cc1ccccc1C
viscosity [mPa·s], 101 kPa
Settings	298.15 K	308.15 K
x1 = 0.0549	0.797	0.686
x1 = 0.1475	0.891	0.756
x1 = 0.2508	1.004	0.84
x1 = 0.3485	1.129	0.933
x1 = 0.4527	1.286	1.052
x1 = 0.5	1.366	1.113
x1 = 0.5489	1.457	1.182
x1 = 0.6483	1.666	1.341
x1 = 0.7518	1.925	1.54
x1 = 0.8493	2.216	1.765
x1 = 0.9524	2.586	2.053

CNC=O + Cc1ccccc1N
viscosity [mPa·s], 100 kPa
Settings	x1 = 0.0896	x1 = 0.1601	x1 = 0.2501	x1 = 0.3425	x1 = 0.4328	x1 = 0.5424	x1 = 0.6554	x1 = 0.7342	x1 = 0.8414
303.15 K	3.114	3	2.853	2.702	2.553	2.369	2.179	2.045	1.86
308.15 K	2.708	2.617	2.498	2.375	2.254	2.105	1.95	1.84	1.689
313.15 K	2.393	2.317	2.219	2.117	2.016	1.892	1.763	1.671	1.544
318.15 K	2.081	2.022	1.946	1.865	1.786	1.688	1.585	1.513	1.411

CCCCCCBr + ClC(Cl)(Cl)Cl
101 kPa
Settings	viscosity [mPa·s]
298.15 K, x1 = 0.1135	0.8881
298.15 K, x1 = 0.1518	0.8858
298.15 K, x1 = 0.1823	0.8835
298.15 K, x1 = 0.2319	0.8822
298.15 K, x1 = 0.3098	0.8844
298.15 K, x1 = 0.474	0.8943
298.15 K, x1 = 0.6449	0.9113
303.45 K, x1 = 0.0686	0.8329
303.45 K, x1 = 0.0894	0.8281
303.45 K, x1 = 0.1554	0.8277
303.45 K, x1 = 0.1952	0.8288
303.45 K, x1 = 0.2666	0.8328
303.45 K, x1 = 0.424	0.8436
303.45 K, x1 = 0.5955	0.8555
303.45 K, x1 = 0.7896	0.8708
313.35 K, x1 = 0.0691	0.7236
313.35 K, x1 = 0.0909	0.723
313.35 K, x1 = 0.1303	0.7251
313.35 K, x1 = 0.1568	0.7252
313.35 K, x1 = 0.1996	0.7259
313.35 K, x1 = 0.2736	0.7309
313.35 K, x1 = 0.5015	0.7462
313.35 K, x1 = 0.7896	0.7649

CCOCCOCCOCC + ClC(Cl)(Cl)Cl
298.15 K, 101 kPa
Settings	viscosity [mPa·s]
x1 = 0.0066	0.914
x1 = 0.0198	0.932
x1 = 0.0498	0.975
x1 = 0.0871	1.016
x1 = 0.127	1.051
x1 = 0.1781	1.093
x1 = 0.2051	1.115
x1 = 0.2354	1.134
x1 = 0.2797	1.161
x1 = 0.3206	1.18
x1 = 0.3371	1.189
x1 = 0.3614	1.202
x1 = 0.3768	1.21
x1 = 0.4165	1.225
x1 = 0.4689	1.241
x1 = 0.5264	1.257
x1 = 0.5651	1.269
x1 = 0.599	1.269
x1 = 0.6708	1.274
x1 = 0.715	1.286
x1 = 0.7943	1.293
x1 = 0.8245	1.283
x1 = 0.8784	1.282
x1 = 0.9126	1.282
x1 = 0.9535	1.273

CCCCOCCO + ClC(Cl)Cl
298.15 K, 101.3 kPa
Settings	viscosity [mPa·s]
x1 = 0.0035	0.536
x1 = 0.0216	0.555
x1 = 0.0344	0.57
x1 = 0.0767	0.628
x1 = 0.1259	0.703
x1 = 0.2281	0.901
x1 = 0.2903	1.042
x1 = 0.3627	1.235
x1 = 0.4472	1.494
x1 = 0.5049	1.659
x1 = 0.5823	1.894
x1 = 0.6772	2.175
x1 = 0.7828	2.429
x1 = 0.8296	2.525
x1 = 0.9123	2.702

CCOCCOCCOCC + ClC(Cl)Cl
298.15 K, 101 kPa
Settings	viscosity [mPa·s]
x1 = 0.0089	0.538
x1 = 0.0178	0.56
x1 = 0.0263	0.579
x1 = 0.0446	0.62
x1 = 0.0878	0.723
x1 = 0.1473	0.862
x1 = 0.1744	0.916
x1 = 0.2224	1.012
x1 = 0.2736	1.108
x1 = 0.3402	1.194
x1 = 0.345	1.208
x1 = 0.3725	1.248
x1 = 0.4081	1.284
x1 = 0.4541	1.316
x1 = 0.509	1.341
x1 = 0.5754	1.353
x1 = 0.626	1.358
x1 = 0.6804	1.352
x1 = 0.7347	1.342
x1 = 0.7875	1.326
x1 = 0.8348	1.312
x1 = 0.8675	1.309
x1 = 0.9216	1.292
x1 = 0.9756	1.278

CCOCCOCCOCC + ClCCl
298.15 K, 101 kPa
Settings	viscosity [mPa·s]
x1 = 0.0052	0.409
x1 = 0.0103	0.413
x1 = 0.0277	0.449
x1 = 0.0559	0.492
x1 = 0.0751	0.516
x1 = 0.1056	0.576
x1 = 0.1326	0.622
x1 = 0.1807	0.699
x1 = 0.2427	0.784
x1 = 0.2846	0.843
x1 = 0.3028	0.87
x1 = 0.3207	0.893
x1 = 0.3629	0.948
x1 = 0.4227	1.006
x1 = 0.445	1.031
x1 = 0.5119	1.096
x1 = 0.5582	1.131
x1 = 0.583	1.148
x1 = 0.6108	1.172
x1 = 0.6567	1.192
x1 = 0.7048	1.217
x1 = 0.7501	1.233
x1 = 0.803	1.246
x1 = 0.8457	1.264
x1 = 0.9124	1.268
x1 = 0.9488	1.269
x1 = 0.9709	1.27

CCOC(=O)CCl + Clc1ccccc1
viscosity [mPa·s], 101.3 kPa
Settings	x1 = 0.1064	x1 = 0.2055	x1 = 0.3	x1 = 0.3972	x1 = 0.5005	x1 = 0.5976	x1 = 0.6985	x1 = 0.7953	x1 = 0.8963
298.15 K	0.799	0.828	0.858	0.889	0.925	0.959	0.996	1.031	1.064
303.15 K	0.752	0.778	0.804	0.834	0.865	0.895	0.927	0.959	0.986
308.15 K	0.706	0.728	0.751	0.776	0.804	0.831	0.858	0.885	0.91

CCOC(=O)CCl + N#CCc1ccccc1
Settings	viscosity [mPa·s]
308.15 K, 101 kPa, x2 = 0.3793	1.155

CCCCOCCO + NCCO
viscosity [mPa·s]
Settings	293.15 K	298.15 K	303.15 K	308.15 K	313.15 K	318.15 K	323.15 K
101 kPa, x2 = 0.177	4.615	3.961	3.431	2.994	2.629	2.325	2.07
101 kPa, x2 = 0.453	8.081	6.718	5.65	4.799	4.115	3.559	3.101
101 kPa, x2 = 0.659	12.25	9.951	8.19	6.823	5.747	4.888	4.197
101 kPa, x2 = 0.819	16.81	13.39	10.84	8.898	7.395	6.212	5.271
101 kPa, x2 = 0.946	21.65	17.02	13.6	11.03	9.061	7.538	6.342
101.3 kPa, x2 = 0.457	8.08	6.72	5.65	4.8	4.11	3.56	3.1
101.3 kPa, x2 = 0.664	12.25	9.95	8.19	6.82	5.75	4.89	4.2
